Consider six compounds from patent US5202320A, “Method for treating leishmaniasis” (priority 1989, dated 1993).

In assay [1] the test system is leishmaniasis. Conditions: Reviews of Infectious Diseases 10(3):576-577; Experimental Parasitology 52:409 (1981); cited from earlier work.
Assay [2] concerns Preumocystis carinii pneumonia. Conditions: especially immunocompromised patients suffering from AIDS; cited from earlier work.
Assay [3] has as its system trypanosomiasis. The note with it: in vivo; cited from earlier work.
For assay [4], the system named is Leishmania mexicana amazonensis. Kind of assay: In vitro screening for anti-leishmanial activity: inhibition of 3H-thymidine incorporation by promastigotes. It counts as cell-based. Conditions: for IC50: PREVIOUS, Table III only. As for the experimental part:
Leishmania mexicana amazonensis, strain MHOM/BR/73/M2269 (WR669), promastigotes were grown to early log phase in Schneider's Drosophila Medium (GIBCO) supplemented with 20% heat-inactivated fetal bovine serum GIBCO) and 100 ug/ml gentamicin sulfate [Parasitology 76:309 (1978)]. The assay medium was Schneider's plus 10% fetal bovine serum. Serial dilutions of the compounds of use in the present invention were suspended in the assay medium an prepared in duplicate rows of a 96-well microtiter plate. Parasite suspension (200 ul) at 2.5×10^6 cells/ml was added to each well and each plate was sealed and incubated under air at 25° C. After 24 hours, [methyl-3H] thymidine (20 Ci/mmol) was added to yield 1-2 uCi/well. After an additional 18 hours, the cells were harvested with a Skatron cell harvester onto glass microfiber filters. The filter disks were washed and dried and counted using a Beckman LS3801 scintillation counter. The data on uptake of ^3 H-thymidine was fitted to a logistic-logarithmic concentration response function by a non-linear regression method and the drug concentrations required to inhibit 50% incorporation of ^3 H-thymidine were determined [Antimicrob. Agents Chemother. 16:710 (1979); Exper. Parasitol. 66:86 (1988)].
(In general: Incorporation of labelled thymidine or its analogues reports DNA synthesis.)

Broadly, the IC50 is the point on the concentration scale where inhibition reaches its midpoint. Low readings indicate inhibition by little substance, high ones a need for much substance.

For `N=C(N)c1ccc(OCCCCCOc2ccc(C(=N)N)cc2)cc1` [Example 4, pentamidine], the “utility for treating leishmaniasis (in words)” value in assay [1] is reported as “limited utility for the purpose of treating leishmaniasis”. In addition, the “usefulness in treatment of Preumocystis carinii pneumonia (in words)” value in assay [2] is recorded as “extremely useful in the treatment of Preumocystis carinii pneumonia”. Further, in assay [3], the “usefulness for treatment of trypanosomiasis (in words)” value is recorded as “useful for the treatment of trypanosomiasis”. In addition, the “anti-Leishmania activity (in words)” value in assay [4] is reported as “moderately effective against Leishmania”. Consider `N=C(N)c1ccc(NCCCCCNc2ccc(C(=N)N)cc2)cc1` [Example 8], for which the “anti-Leishmania activity (in words)” value in assay [4] is given as “high-degree of anti-Leishmania activity”. Still for that read-out and setting: to `N=C(N)c1ccc(OCCCCCCOc2ccc(C(=N)N)cc2)cc1` [Example 9, hexamidine] belongs “high-degree of anti-Leishmania activity”. In the case of `c1cc(C2=NCCN2)ccc1OCCCCCOc1ccc(C2=NCCN2)cc1` [Example 15], half-maximal inhibition in assay [4] (Leishmania mexicana) (IC50) required 670 nM. This lies in the sub-micromolar range. For the compound `CN1CCN=C1c1ccc(OCCCCCOc2ccc(C3=NCCN3C)cc2)cc1` [Example 16], the IC50 in assay [4] is > 4500 nM.

For `COc1cc(C2=NCCN2)ccc1OCCCOc1ccc(C2=NCCN2)cc1OC` [Example 17], in assay [4] (Leishmania mexicana), the IC50 is > 4500 nM.
